Here are results for 11 compounds from PubChem BioAssay (NCI).

Values joined by “and” are separate entries in the source; they are usually repeats but may differ in a detail not shown here. Identical values can stand only once.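 Protocol summary: plate cells (96-well), add compound at 5 concentrations, incubate 48 h, interpolate endpoints linearly. GI50 marks 50% less growth. TGI denotes the concentration required for complete inhibition of growth.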

Some test systems named below: KM12 colon; NCI-H460 lung; MOLT-4 leukemia; IGROV1 ovarian; HOP-62 NSCLC; OVCAR-8 ovarian; HT29 colon; NCI-H522 lung; SNB-19 CNS; A498 renal.
Common to all, as to assay: NCI anticancer screen, dose series, 48 h

As for `NC(=O)NC1C(C(=O)O)N(Cc2ccccc2)C(=O)N1Cc1ccccc1` (stereo not given), the TGI with KM12 colon is greater than 100 µM; with NCI-H460 lung, greater than 100 µM; with MOLT-4 leukemia, 10.9 µM; in the experiment on IGROV1 ovarian it was greater than 100 µM; with HOP-62 NSCLC, greater than 100 µM; with OVCAR-8 ovarian, greater than 100 µM. In addition, the TGI in the experiment with HT29 colon, with NCI-H522 lung and in the experiment on SNB-19 CNS was greater than 100 µM each time.
For `O=C1CCCCC12CCC/C2=N\O` (stereo not given), the TGI in the experiment with KM12 colon, in the experiment with NCI-H460 lung, in the experiment with A498 renal, in the experiment with MOLT-4 leukemia, with IGROV1 ovarian and with HOP-62 NSCLC was greater than 100 µM in each case. The TGI in the experiment with OVCAR-8 ovarian, in the experiment on NCI-H522 lung and in the experiment on SNB-19 CNS was greater than 100 µM in each case.
`NC(CSSCC(N)C(=O)O)C(=O)O` (stereo not given): the GI50 in the experiment on KM12 colon, in the experiment with NCI-H460 lung, in the experiment on A498 renal, in the experiment with MOLT-4 leukemia, in the experiment on IGROV1 ovarian and in the experiment with HOP-62 NSCLC was greater than 100 µM in each case. The GI50 in the experiment with OVCAR-8 ovarian, in the experiment with HT29 colon and in the experiment with SNB-19 CNS was greater than 100 µM each time. The TGI with KM12 colon, in the experiment with NCI-H460 lung, in the experiment on A498 renal, with MOLT-4 leukemia, in the experiment with IGROV1 ovarian and in the experiment on HOP-62 NSCLC was greater than 100 µM throughout. The TGI in the experiment on OVCAR-8 ovarian, in the experiment on HT29 colon and in the experiment with SNB-19 CNS was greater than 100 µM each time.
Take `COCCOCCOCCOc1cccc2c1C(=O)c1cccc(OCCOCCOCCOC)c1C2=O`: the TGI in the experiment with NCI-H460 lung, in the experiment with A498 renal, in the experiment with MOLT-4 leukemia, with IGROV1 ovarian, in the experiment on HOP-62 NSCLC and in the experiment on OVCAR-8 ovarian was greater than 100 µM in each case. Besides, the TGI with HT29 colon and with SNB-19 CNS was greater than 100 µM each time.
On to `COC(=O)Cc1cc(=O)[nH]c2c1C(=O)CCC2`, for which the TGI with KM12 colon, in the experiment on NCI-H460 lung, in the experiment with MOLT-4 leukemia, in the experiment with IGROV1 ovarian, in the experiment with OVCAR-8 ovarian and in the experiment with HT29 colon was greater than 100 µM throughout. In addition, the TGI in the experiment on NCI-H522 lung and in the experiment on SNB-19 CNS was greater than 100 µM each time.
`CCOc1ccc2c(c1)c(CC(=O)O)cn2C`: the TGI in the experiment with KM12 colon, in the experiment on NCI-H460 lung, in the experiment with MOLT-4 leukemia, in the experiment with HOP-62 NSCLC, in the experiment with OVCAR-8 ovarian and in the experiment with HT29 colon was greater than 100 µM throughout. The TGI in the experiment with NCI-H522 lung and with SNB-19 CNS was greater than 100 µM in each case.
As for `Cc1ccc(S(=O)(=O)N/N=C/C(C)C)cc1`, the TGI in the experiment with KM12 colon, in the experiment with NCI-H460 lung, in the experiment on A498 renal, in the experiment on MOLT-4 leukemia, with IGROV1 ovarian and in the experiment with HOP-62 NSCLC was greater than 100 µM in each case. Besides, the TGI in the experiment on OVCAR-8 ovarian, in the experiment on HT29 colon and in the experiment with SNB-19 CNS was greater than 100 µM each time.
In the case of `CN(CCC(=O)/C(=C\c1ccccc1)c1ccc(Cl)cc1)Cc1ccccc1`, the GI50 with KM12 colon was 3.07 µM; in the experiment with NCI-H460 lung, 3.18 µM; in the experiment with A498 renal, 3.45 µM; in the experiment with MOLT-4 leukemia, 1.49 µM; in the experiment with HOP-62 NSCLC, 2.87 µM; in the experiment on OVCAR-8 ovarian it was 3.32 µM. For the same compound, the GI50 was 2.28 µM with HT29 colon, 1.69 µM with NCI-H522 lung and 3.92 µM in the experiment with SNB-19 CNS. Also, the TGI was found to be 11 µM in the experiment on KM12 colon; 11.2 µM in the experiment on NCI-H460 lung; 12.6 µM with A498 renal; 6.88 µM in the experiment on MOLT-4 leukemia; 7.46 µM in the experiment on HOP-62 NSCLC; 14.8 µM in the experiment on OVCAR-8 ovarian. Further, the results for the TGI with HT29 colon, with NCI-H522 lung and in the experiment with SNB-19 CNS were 5.2 µM, 3.19 µM and 19.1 µM, respectively.
In the case of `Cc1nc2ccccc2nc1N=Nc1ccccc1`, the GI50 with KM12 colon was 11.9 µM; in the experiment with MOLT-4 leukemia it was 14.9 µM; in the experiment on IGROV1 ovarian, 9.58 µM; with HOP-62 NSCLC it was 28.5 µM; with OVCAR-8 ovarian it was 22.4 µM; in the experiment with HT29 colon, 0.193 µM. The values for the GI50 in the experiment with NCI-H522 lung and in the experiment with SNB-19 CNS were 20.4 µM and 50.3 µM, respectively. In addition, the TGI in the experiment on KM12 colon is 93.5 µM; with MOLT-4 leukemia it was 43.2 µM; in the experiment on IGROV1 ovarian it was greater than 100 µM; with HOP-62 NSCLC, greater than 100 µM; with OVCAR-8 ovarian, greater than 100 µM; with HT29 colon, 15.1 µM. The TGI in the experiment with NCI-H522 lung is 63.1 µM; in the experiment on SNB-19 CNS, greater than 100 µM.
As for `CCCCNc1ccc(Nc2ccccc2)cc1`, the GI50 with KM12 colon is 4.02 µM; in the experiment with NCI-H460 lung it was 4.61 µM; in the experiment with A498 renal, 11.4 µM; in the experiment with MOLT-4 leukemia it was 3.23 µM; with IGROV1 ovarian, 5.61 µM; in the experiment with HOP-62 NSCLC, 14.4 µM. Also, the GI50 in the experiment with HT29 colon is 4.37 µM; in the experiment with SNB-19 CNS it was 5.19 µM. Besides, the TGI was 32.6 µM in the experiment with KM12 colon; 43 µM with NCI-H460 lung; greater than 100 µM with A498 renal; 25.9 µM in the experiment on MOLT-4 leukemia; 27.2 µM in the experiment on IGROV1 ovarian; 71.4 µM in the experiment with HOP-62 NSCLC. Also, the TGI with HT29 colon was 25.1 µM; with SNB-19 CNS, greater than 100 µM.
As for `COc1ccc2c(c1)-c1nn(CCCN(C)C)c3ccc([N+](=O)[O-])c(c13)N2`, the GI50 in the experiment with KM12 colon was 0.194 µM and 0.43 µM; in the experiment with NCI-H460 lung, 0.103 µM and 0.27 µM; with A498 renal, 0.458 µM and 1.54 µM; in the experiment with IGROV1 ovarian it was 0.215 µM and 0.507 µM; with HOP-62 NSCLC, 0.104 µM and 0.686 µM; in the experiment with NCI-H522 lung it was 0.117 µM and 0.385 µM. Moreover, the GI50 in the experiment on SNB-19 CNS is 0.192 µM and 0.59 µM. In addition, the TGI in the experiment with KM12 colon was 2.54 µM and 2.58 µM; in the experiment with NCI-H460 lung, 1.21 µM and 3.06 µM; in the experiment with A498 renal it was 3.51 µM and 8.8 µM; in the experiment with IGROV1 ovarian, 3.48 µM and 6.59 µM; in the experiment with HOP-62 NSCLC it was 1.06 µM and 5.26 µM; in the experiment with OVCAR-8 ovarian, 4.19 µM and 5.06 µM. Moreover, the TGI in the experiment with HT29 colon is 2.46 µM and 3.05 µM; with NCI-H522 lung, 1.03 µM and 2.26 µM; with SNB-19 CNS, 6.33 µM and 11.3 µM.
